Target: T1, PARP1 (Homo sapiens, UniProt P09874)
T1 construct: purchased BPS Bioscience
Assay: PARP1 biochemical assay (BPS Bioscience kit, chemiluminescent)
Conditions: histone-coated plate, biotinylated NAD+, 60 min at 25° C., luminescence; read-out: PARP 1 inhibition IC50
Protocol: Example 16: PARP1 Biochemical Assay
The assay was performed using BPS Bioscience kit. The 96-well strip plate was coated with 50 μl of histone mixture and incubated at 4° C. overnight. The next day, the wells were blocked by adding 100 μl of blocking buffer. The plate was washed and 25 μl of appropriate concentration of PARP1 (25-75 ng/well) was added in all of the Test and Positive control wells. In the Negative control wells, the enzyme was replaced with 25 μl of water. 5 μl each of 10× PARP assay buffer and activated DNA was added in all the wells (Test, Positive and Negative control wells). 10× concentration of the test compounds were prepared and 5 μl test compounds were added to the respective wells. The reaction volume was made up to 45 μl by adding water to all of the wells. 5 μl of 10× PARP assay mixture containing biotinilated NAD^+ was added in each well and the plate was incubated at ambient temperature (25° C.) for 60 min. After washing the plate 50 μl of Streptavidin-HRP was added in each well, the plate was incubated at RT for 30 min. The plate was washed and the luminescence was read in PHERAStar plate reader after adding 100 μl of chemiluminescent substrate.
PARP inhibition was calculated using the following formula:
% PARP inhibition=100−[(RLU test compound treated sample−RLU negative control)/(RLU Positive control−RLU negative control)×100]
IC50 values were calculated by plotting % inhibition against the respective concentrations of test compounds using GraphPad Prism 5.

T1 sequence (P09874 whole entry): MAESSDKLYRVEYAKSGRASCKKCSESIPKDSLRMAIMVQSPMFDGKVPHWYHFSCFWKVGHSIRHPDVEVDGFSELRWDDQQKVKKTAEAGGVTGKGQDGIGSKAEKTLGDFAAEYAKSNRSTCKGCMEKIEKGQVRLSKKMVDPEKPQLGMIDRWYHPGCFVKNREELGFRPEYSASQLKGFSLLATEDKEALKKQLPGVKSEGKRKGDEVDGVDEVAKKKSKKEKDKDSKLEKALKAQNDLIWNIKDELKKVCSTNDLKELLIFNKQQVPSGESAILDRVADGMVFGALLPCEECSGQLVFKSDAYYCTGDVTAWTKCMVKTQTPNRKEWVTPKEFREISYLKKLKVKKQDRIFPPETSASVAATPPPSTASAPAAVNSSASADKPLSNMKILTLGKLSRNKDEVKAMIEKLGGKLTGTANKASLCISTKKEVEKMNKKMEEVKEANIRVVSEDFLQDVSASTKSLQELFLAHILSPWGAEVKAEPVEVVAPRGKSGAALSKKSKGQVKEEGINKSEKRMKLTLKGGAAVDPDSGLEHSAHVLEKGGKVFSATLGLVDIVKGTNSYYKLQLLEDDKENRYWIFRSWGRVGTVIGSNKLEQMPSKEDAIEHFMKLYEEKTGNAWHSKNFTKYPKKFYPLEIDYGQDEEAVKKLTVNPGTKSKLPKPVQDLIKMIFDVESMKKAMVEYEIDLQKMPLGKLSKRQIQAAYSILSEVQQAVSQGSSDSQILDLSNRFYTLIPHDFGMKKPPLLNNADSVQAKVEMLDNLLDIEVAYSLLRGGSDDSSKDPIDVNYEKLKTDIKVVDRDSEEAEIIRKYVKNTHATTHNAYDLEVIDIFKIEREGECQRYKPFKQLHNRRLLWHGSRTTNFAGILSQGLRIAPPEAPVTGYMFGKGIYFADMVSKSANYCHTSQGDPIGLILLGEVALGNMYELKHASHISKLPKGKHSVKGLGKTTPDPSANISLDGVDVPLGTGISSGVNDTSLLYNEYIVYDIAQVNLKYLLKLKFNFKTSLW

SMILES | IC50
O=c1[nH]c(C2=C[C@H](N3CCN(c4ccc5c(c4)CCC5)CC3)CC2)cc2ncccc12 [Compound 30, (R)-7-(3-(4-(2,3-dihydro-1H-inden-5-yl)piperazin-1-yl)cyclopent-1-en-1-yl)-1,6-naphthyridin-5(6H)-one] | 0.5 to 5 nM
O=C1OCc2cc(N3CCN([C@H]4C=C(c5cc6ncccc6c(=O)[nH]5)CC4)CC3)ccc21 [Compound 31, (R)-7-(3-(4-(1-oxo-1,3-dihydroisobenzofuran-5-yl)piperazin-1-yl)cyclopent-1-en-1-yl)-1,6-naphthyridin-5(6H)-one] | 0.5 to 5 nM
O=C1NCc2cc(N3CCN([C@H]4C=C(c5cc6ncccc6c(=O)[nH]5)CC4)CC3)ccc21 [Compound 32, (R)-7-(3-(4-(1-oxoisoindolin-5-yl)piperazin-1-yl)cyclopent-1-en-1-yl)-1,6-naphthyridin-5(6H)-one] | 0.5 to 5 nM
O=c1[nH]c(C2=C[C@H](N3CCN(c4ccc(C(F)(F)F)cc4)CC3)CC2)cc2ncccc12 [Compound 33, (R)-7-(3-(4-(4-(trifluoromethyl)phenyl)piperazin-1-yl)cyclopent-1-en-1-yl)-1,6-naphthyridin-5(6H)-one] | 5.1 to 50 nM
N#Cc1ccc(N2CCN([C@H]3C=C(c4cc5ncccc5c(=O)[nH]4)CC3)CC2)nc1 [Compound 34, (R)-6-(4-(3-(5-oxo-5,6-dihydro-1,6-naphthyridin-7-yl)cyclopent-2-en-1-yl)piperazin-1-yl)nicotinonitrile] | 0.5 to 5 nM
N#Cc1cnc(N2CCN([C@H]3C=C(c4cc5ncccc5c(=O)[nH]4)CC3)CC2)s1 [Compound 35, (R)-2-(4-(3-(5-oxo-5,6-dihydro-1,6-naphthyridin-7-yl)cyclopent-2-en-1-yl)piperazin-1-yl)thiazole-5-carbonitrile] | 0.5 to 5 nM
N#Cc1ccc(N2CCN([C@H]3C=C(c4cc5cnccc5c(=O)[nH]4)CC3)CC2)cc1 [Compound 36, (R)-4-(4-(3-(1-oxo-1,2-dihydro-2,6-naphthyridin-3-yl)cyclopent-2-en-1-yl)piperazin-1-yl)benzonitrile] | 0.5 to 5 nM
N#Cc1ccc(N2CCN([C@H]3C=C(c4cc5cccnc5c(=O)[nH]4)CC3)CC2)cc1 [Compound 37, (R)-4-(4-(3-(8-oxo-7,8-dihydro-1,7-naphthyridin-6-yl)cyclopent-2-en-1-yl)piperazin-1-yl)benzonitrile] | 0.5 to 5 nM
N#Cc1ccc(N2CCN([C@H]3C=C(c4cc5ccncc5c(=O)[nH]4)CC3)CC2)cc1 [Compound 38, (R)-4-(4-(3-(1-oxo-1,2-dihydro-2,7-naphthyridin-3-yl)cyclopent-2-en-1-yl)piperazin-1-yl)benzonitrile] | 0.5 to 5 nM
O=c1[nH]c(C2=C[C@H](N3CCN(c4ccc(F)cc4F)CC3)CC2)cc2ncccc12 [Compound 39, (R)-7-(3-(4-(2,4-difluorophenyl)piperazin-1-yl)cyclopent-1-en-1-yl)-1,6-naphthyridin-5(6H)-one] | 0.5 to 5 nM
N#Cc1ccc(N2CCN([C@H]3C=C(c4cc5ncncc5c(=O)[nH]4)CC3)CC2)cc1 [Compound 40, (R)-4-(4-(3-(5-oxo-5,6-dihydropyrido[4,3-d]pyrimidin-7-yl)cyclopent-2-en-1-yl)piperazin-1-yl)benzonitrile] | 0.5 to 5 nM

More lines, now with the values ahead:

IC50 | SMILES
5.1 to 50 nM | N#Cc1ccc(N2CCN([C@H]3C=C(c4cc5nccnc5c(=O)[nH]4)CC3)CC2)cc1 [Compound 41, (R)-4-(4-(3-(5-oxo-5,6-dihydropyrido[3,4-b]pyrazin-7-yl)cyclopent-2-en-1-yl)piperazin-1-yl)benzonitrile]
0.5 to 5 nM | N#Cc1ccc(N2CCN([C@H]3C=C(c4cc5sccc5c(=O)[nH]4)CC3)CC2)cc1 [Compound 42, (R)-4-(4-(3-(4-oxo-4,5-dihydrothieno[3,2-c]pyridin-6-yl)cyclopent-2-en-1-yl)piperazin-1-yl)benzonitrile]
0.5 to 5 nM | N#Cc1ccc(N2CCN([C@H]3C=C(c4cc5ncsc5c(=O)[nH]4)CC3)CC2)cc1 [Compound 43, (R)-4-(4-(3-(4-oxo-4,5-dihydrothiazolo[5,4-c]pyridin-6-yl)cyclopent-2-en-1-yl)piperazin-1-yl)benzonitrile]
0.5 to 5 nM | N#Cc1ccc(N2CCN([C@H]3C=C(c4cc5scnc5c(=O)[nH]4)CC3)CC2)cc1 [Compound 44, (R)-4-(4-(3-(4-oxo-4,5-dihydrothiazolo[4,5-c]pyridin-6-yl)cyclopent-2-en-1-yl)piperazin-1-yl)benzonitrile]
5.1 to 50 nM | N#Cc1ccc(N2CCN([C@@H]3C=C(c4cc5sccc5c(=O)[nH]4)CC3)CC2)cc1 [Compound 45, (S)-4-(4-(3-(4-oxo-4,5-dihydrothieno[3,2-c]pyridin-6-yl)cyclopent-2-en-1-yl)piperazin-1-yl)benzonitrile]
0.5 to 5 nM | O=c1[nH]c(C2=C[C@H](N3CCN(c4ccc(F)cc4)CC3)CC2)cc2sccc12 [Compound 47, (R)-6-(3-(4-(4-fluorophenyl)piperazin-1-yl)cyclopent-1-en-1-yl)thieno[3,2-c]pyridin-4(5H)-one]
0.5 to 5 nM | O=c1[nH]c(C2=C[C@H](N3CCN(c4ccccc4)CC3)CC2)cc2sccc12 [Compound 48, (R)-6-(3-(4-phenylpiperazin-1-yl)cyclopent-1-en-1-yl)thieno[3,2-c]pyridin-4(5H)-one]
0.5 to 5 nM | CNC(=O)c1ccc(N2CCN([C@H]3C=C(c4cc5sccc5c(=O)[nH]4)CC3)CC2)cc1 [Compound 49, (R)—N-methyl-4-(4-(3-(4-oxo-4,5-dihydrothieno[3,2-c]pyridin-6-yl)cyclopent-2-en-1-yl)piperazin-1-yl)benzamide]
0.5 to 5 nM | N#Cc1ccc(N2CCN([C@H]3C=C(c4cc5sccc5c(=O)[nH]4)CC3)CC2)nc1 [Compound 50, (R)-6-(4-(3-(4-oxo-4,5-dihydrothieno[3,2-c]pyridin-6-yl)cyclopent-2-en-1-yl)piperazin-1-yl)nicotinonitrile]
5.1 to 50 nM | O=c1[nH]c(C2=C[C@H](N3CCN(c4nccs4)CC3)CC2)cc2sccc12 [Compound 51, (R)-6-(3-(4-(thiazol-2-yl)piperazin-1-yl)cyclopent-1-en-1-yl)thieno[3,2-c]pyridin-4(5H)-one]
0.5 to 5 nM | N#Cc1ccc(N2CCN([C@H]3C=C(c4cc5ncsc5c(=O)[nH]4)CC3)CC2)c(F)c1 [Compound 52, (R)-3-fluoro-4-(4-(3-(4-oxo-4,5-dihydrothiazolo[5,4-c]pyridin-6-yl)cyclopent-2-en-1-yl)piperazin-1-yl)benzonitrile]
0.5 to 5 nM | N#Cc1ccc(N2CCN([C@H]3C=C(c4cc5cccn5c(=O)[nH]4)CC3)CC2)cc1 [Compound 54, (R)-4-(4-(3-(1-oxo-1,2-dihydropyrrolo[1,2-c]pyrimidin-3-yl)cyclopent-2-en-1-yl)piperazin-1-yl)benzonitrile]
0.5 to 5 nM | O=c1[nH]c(C2=C[C@H](N3CCN(c4ccc(F)cc4)CC3)CC2)cc2cccn12 [Compound 55, (R)-3-(3-(4-(4-fluorophenyl)piperazin-1-yl)cyclopent-1-en-1-yl)pyrrolo [1,2-c]pyrimidin-1(2H)-one]
0.5 to 5 nM | N#Cc1ccc(N2CCN([C@H]3C=C(c4cn5cccc5c(=O)[nH]4)CC3)CC2)cc1 [Compound 56, (R)-4-(4-(3-(1-oxo-1,2-dihydropyrrolo[1,2-a]pyrazin-3-yl)cyclopent-2-en-1-yl)piperazin-1-yl)benzonitrile]

Reference: patent US20200101068A1, “Heteroaryl Derivatives as PARP Inhibitors” (Lupin Limited, priority 2015, published 2020)
